Experimental data: article PMC9106035, “Synthesis, X-ray Structure and Biological Studies of New Self-Assembled Cu(II) Complexes Derived from s-Triazine Schiff Base Ligand” (Molecules, 2022)
Values after ≈ are worked out from the molar mass of the structure shown.

Experiments:
[1] = DPPH radical scavenging assay; assay type: biochemical
Protocol: The studied Cu(II) complexes and the free ligands were assessed for their antioxidant activity levels using an α,α-diphenyl-β-picrylhydrazyl (DPPH) scavenging assay, and the results are given in Table 7. […] The results indicated better antioxidant activity for DMAT than for DMOHT, indicating the effect of the substituent at the phenyl moiety on the antioxidant activity level of the free ligand. […] On the other hand, the Cu(II) complexes have improved levels of antioxidant activity compared to the free ligands.
Method S3 DPPH Radical Scavenging Activity:
Freshly prepared (0.004 %w/v) methanol solution of 2,2-diphenyl-1-pi crylhydrazyl (DPPH) radical was prepared and stored at 10 °C in dark place. A methanolic solution of the test compound was prepared using the same procedure. A 40 uL aliquot of the methanol solution was added to 3mL of DPPH solution. Absorbance measurements were recorded immediately with a UV-visible spectrophotometer (Milton Roy, Spectronic 1201). The decrease in absorbance at 515 nm was determined continuously, with data being recorded at 1 min intervals until the absorbance stabilized (16 min). The absorbance of the DPPH radical without antioxidant (control) and the reference compound ascorbic acid were also measured.
All the determinations were performed in three replicates and averaged. The percentage inhibition (PI) of the DPPH radical was calculated according to the […]
PI = [{(AC- AT)/ AC} x 100] (1)
Where AC = Absorbance of the control at t = 0 min and AT = absorbance of the sample+DPPH at t = 16 min. The 50% inhibitory concentration (IC50), the concentration required t o inhibit DPPH radical by 50%, was estimated from graphic plots of the dose respons e curve.

[2] = test system: lung carcinoma A-549 cell line; assay: Anticancer activity, MTT viability assay; assay type: cell-based
Protocol: The studied compounds were examined for their anticancer activity against the lung carcinoma A-549 cell line.
(§1) Method S4 Evaluation of Cytotoxic activity
(§2) The cells were propagated in Dulbecco’s modified Eagle’s medium (DMEM) supplemented with 10% heat-inactivated fetal bovine serum, 1 % L-glutamine, HEPES buffer and 50µg/mL Gentamycin. All cells were maintained at 37 °C in a humidified atmosphere with 5% CO2 and were subcultured tw o times a week.
(§3) Cytotoxicity evaluation using viability assay
(§4) For cytotoxicity assay, the cells were seeded in 96-well plate at a cell concentration of 1×10^4 cells per well in 100µl of growth medium. Fresh medium containing different concentrations of the test sample was added after 24 h of seeding. Serial two-fold dilutions of the tested chemical compound were added to confluent cell monolayers dispensed into 96-well, flat-bottomed microtiter plates (Falcon, NJ, USA) using a multichannel pipette. The microtiter plates were incubated at 37 °C in a humidified incubator with 5% CO2 for a period of 24 h. Three wells were used for each concentration of the test sample. Control cells were incubated without test sample and with or without DMSO. The little percentage of DMSO present in the […]
(§5) cells for at 37°C, for 24 h, the viabl e cells yield was determined by the MTT test.
(§6) Briefly, the media was removed from the 96 well plate and replaced with 100 µL of fresh culture DMEM m edium without phenol red then 10 µL of the 12 mM MTT stock solution (5 mg of MTT in 1 mL of PBS) to each well including the untreated controls. The 96 well plates were then incubated at 37°C and 5% CO2 for 4 hours. An 85 µL aliquot of the media was removed from t he wells, and 50 µL of DMSO was added to each well and mixed thoroughly with the pipette and incubated at 37°C for 10 min. Then, the optical density was measured at 590 nm with the microplate reader (SunRise, TECAN, Inc, USA) to determine the number of viable cells and the percentage of viability was calculat ed as [(ODt/ODc)]x100% where ODt i s the mean optical density of wells treated with the tested s ample and ODc is the mean optical density of untreated cells. The relation between surviving cells and drug concentration is plotted to get the survival curve of each tumor cell line after treatment with the specified compound. The 50% inhibitory concentration (IC50), the concentration required to cause t oxic effects in 50% of intact cells, was estimated from graphic plots of the dose response curve for each conc. using Graphpad Prism software (San Diego, […]

[3] = test system: normal human lung fibroblast MRC-5 cells; assay: Cytotoxic activity on normal cells, MTT viability assay; assay type: cell-based; conditions: Homo sapiens, MRC5, MRC-5, Table S12, read-out: Inhibitory %
Protocol: In this regard, the selectivity index (SI) was calculated as the ratio of cytotoxic effect on the normal cell line to the cytotoxic effect on the cancer cell line.
as §1, §2, §3, §4, §5, §6

With `CC(=NNc1nc(N2CCOCC2)nc(N2CCOCC2)n1)c1ccccc1O` [DMOHT, 2-(1-(2-(4,6-dimorpholino-1,3,5-triazin-2-yl)hydrazono)ethyl)phenol] as the compound, how does the “DPPH Scavenging %” value ([1]; Conc. 2.5 μg/mL) read?
Its value is 5.73%.

What about the “DPPH Scavenging %” value ([1]; Conc. 5 μg/mL) of the same compound?
The value was 10.48%.

What about the “DPPH Scavenging %” value ([1]; Conc. 10 μg/mL) of the same compound?
The value was 19.87%.

What about the “DPPH Scavenging %” value ([1]; Conc. 20 μg/mL) of the same compound?
The value was 31.95%.

What about the “DPPH Scavenging %” value ([1]; Conc. 40 μg/mL) of the same compound?
The value was 47.09%.

What about the “DPPH Scavenging %” value ([1]; Conc. 80 μg/mL) of the same compound?
Its value is 61.32%.

What about the “DPPH Scavenging %” value ([1]; Conc. 160 μg/mL) of the same compound?
The value was 73.64%.

What about the “DPPH Scavenging %” value ([1]; Conc. 320 μg/mL) of the same compound?
Its value is 84.93%.

What about the “DPPH Scavenging %” value ([1]; Conc. 640 μg/mL) of the same compound?
Its value is 88.54%.

And the “DPPH Scavenging %” value ([1]; Conc. 1280 μg/mL)?
Its value is 93.87%.

And the “IC50 (DPPH scavenging)” value ([1]; antioxidant activity)?
The value was 48.2 ± 1.08 µg/mL (≈ 121 µM).

And the “SI = CC50/IC50” value ([2]; CC50 (MRC-5) / IC50 (A-549))?
The value was 1.77.

What about the viability at 2.5 µM ([2]; Homo sapiens, A549, A-549, sample conc. 2.5 µM, Table S7) of the same compound?
The viability at 2.5 µM was 100%.

What about the inhibition at 2.5 µM ([2]; Homo sapiens, A549, A-549, sample conc. 2.5 µM, Table S7, read-out: Inhibitory %) of the same compound?
Its inhibition at 2.5 µM is 0%.

And the viability at 5 µM ([2]; Homo sapiens, A549, A-549, sample conc. 5.0 µM, Table S7)?
The viability at 5 µM was 100%.

What about the inhibition at 5 µM ([2]; Homo sapiens, A549, A-549, sample conc. 5.0 µM, Table S7, read-out: Inhibitory %) of the same compound?
Its inhibition at 5 µM is 0%.

And the viability at 9.8 µM ([2]; Homo sapiens, A549, A-549, sample conc. 9.8 µM, Table S7)?
Its viability at 9.8 µM is 100%.

What about the inhibition at 9.8 µM ([2]; Homo sapiens, A549, A-549, sample conc. 9.8 µM, Table S7, read-out: Inhibitory %) of the same compound?
Its inhibition at 9.8 µM is 0%.

What about the viability at 19.5 µM ([2]; Homo sapiens, A549, A-549, sample conc. 19.5 µM, Table S7) of the same compound?
The viability at 19.5 µM was 100%.

What about the inhibition at 19.5 µM ([2]; Homo sapiens, A549, A-549, sample conc. 19.5 µM, Table S7, read-out: Inhibitory %) of the same compound?
The inhibition at 19.5 µM was 0%.

And the viability at 39.1 µM ([2]; Homo sapiens, A549, A-549, sample conc. 39.1 µM, Table S7)?
Its viability at 39.1 µM is 100%.

What about the inhibition at 39.1 µM ([2]; Homo sapiens, A549, A-549, sample conc. 39.1 µM, Table S7, read-out: Inhibitory %) of the same compound?
The inhibition at 39.1 µM was 0%.

And the viability at 78.2 µM ([2]; Homo sapiens, A549, A-549, sample conc. 78.2 µM, Table S7)?
Its viability at 78.2 µM is 98.2%.

What about the inhibition at 78.2 µM ([2]; Homo sapiens, A549, A-549, sample conc. 78.2 µM, Table S7, read-out: Inhibitory %) of the same compound?
The inhibition at 78.2 µM was 1.75%.

What about the viability at 156.5 µM ([2]; Homo sapiens, A549, A-549, sample conc. 156.5 µM, Table S7) of the same compound?
The viability at 156.5 µM was 90.7%.

What about the inhibition at 156.5 µM ([2]; Homo sapiens, A549, A-549, sample conc. 156.5 µM, Table S7, read-out: Inhibitory %) of the same compound?
The inhibition at 156.5 µM was 9.33%.

What about the viability at 312.9 µM ([2]; Homo sapiens, A549, A-549, sample conc. 312.9 µM, Table S7) of the same compound?
Its viability at 312.9 µM is 75.1%.

What about the inhibition at 312.9 µM ([2]; Homo sapiens, A549, A-549, sample conc. 312.9 µM, Table S7, read-out: Inhibitory %) of the same compound?
The inhibition at 312.9 µM was 24.9%.

What about the viability at 625.8 µM ([2]; Homo sapiens, A549, A-549, sample conc. 625.8 µM, Table S7) of the same compound?
Its viability at 625.8 µM is 43.9%.

And the inhibition at 625.8 µM ([2]; Homo sapiens, A549, A-549, sample conc. 625.8 µM, Table S7, read-out: Inhibitory %)?
Its inhibition at 625.8 µM is 56.1%.

What about the viability at 1251.7 µM ([2]; Homo sapiens, A549, A-549, sample conc. 1251.7 µM, Table S7) of the same compound?
The viability at 1251.7 µM was 21.5%.

What about the inhibition at 1251.7 µM ([2]; Homo sapiens, A549, A-549, sample conc. 1251.7 µM, Table S7, read-out: Inhibitory %) of the same compound?
The inhibition at 1251.7 µM was 78.5%.

And the IC50 ([2]; Homo sapiens, A549, A-549 cells, 24 h, MTT)?
The IC50 was 565 µM.

What about the inhibition at 2.5 µM ([3]; sample conc. 2.5 µM) of the same compound?
The inhibition at 2.5 µM was 0%.

And the inhibition at 5 µM ([3]; sample conc. 5.0 µM)?
Its inhibition at 5 µM is 0%.

What about the inhibition at 9.8 µM ([3]; sample conc. 9.8 µM) of the same compound?
Its inhibition at 9.8 µM is 0%.

And the inhibition at 19.5 µM ([3]; sample conc. 19.5 µM)?
Its inhibition at 19.5 µM is 0%.

What about the inhibition at 39.1 µM ([3]; sample conc. 39.1 µM) of the same compound?
Its inhibition at 39.1 µM is 0%.

And the inhibition at 78.2 µM ([3]; sample conc. 78.2 µM)?
The inhibition at 78.2 µM was 0%.

What about the inhibition at 156.5 µM ([3]; sample conc. 156.5 µM) of the same compound?
Its inhibition at 156.5 µM is 2.14%.

And the inhibition at 312.9 µM ([3]; sample conc. 312.9 µM)?
The inhibition at 312.9 µM was 10.4%.

And the inhibition at 625.8 µM ([3]; sample conc. 625.8 µM)?
Its inhibition at 625.8 µM is 32.4%.

And the inhibition at 1251.7 µM ([3]; sample conc. 1251.7 µM)?
Its inhibition at 1251.7 µM is 61.8%.
